In paper PMC11402040 (ESMO Open, 2024):

Columns and labels:
[1] = cited from earlier work; for LFT elevations in the clinic: dose levels evaluated in the clinic
[2] = system: CYP3A; assay: phase I Part 1B PK, CYP3A-mediated drug–drug interaction with enzalutamide; type: in vivo, human; settings: coadministered enzalutamide 160 mg q.d.

Row | Compound | LFT elevations in the clinic [1] | bleeding in clinical studies [1] | other results
1 | CC(C)(O)c1cc(Nc2cc(Oc3cn(C4CC4)nc3C3CCOCC3)ccn2)ccn1 [LY3200882] | not demonstrated severe LFT elevations | – | –
2 | CNC(=O)c1ccc(N2C(=S)N(c3ccc(C#N)c(C(F)(F)F)c3)C(=O)C2(C)C)cc1F [enzalutamide] | – | – | CYP3A4 enzyme induction effect on PF-06952229 [2]: strong cytochrome P450 3A4 (CYP3A4) enzyme induction effect
3 | Cc1cccc(-c2nn3c(c2-c2ccnc4ccc(C(N)=O)cc24)CCC3)n1 [galunisertib] | not demonstrated severe LFT elevations | – | –
4 | bintrafusp alfa: bifunctional fusion protein targeting TGF-β and PD-L1 | – | Bleeding (including intratumoral bleeding) has been observed | –
5 | fresolimumab: other TGF-β inhibitor in clinical studies | – | Bleeding (including intratumoral bleeding) has been observed | –
